Drawing on patent US20250179061A1 (SIRONAX LTD., priority 2022, published 2025), this text covers IC50 for 29 compounds.

The assay has as its system HT-29 cells. As to the kind of experiment: HT-29 necroptosis cell viability assay (TNF-α/SMAC mimetic/zVAD-FMK, CellTiter-Glo). It counts as cell-based. The note with it: Homo sapiens, read-out: Activity. Summed up: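 Necroptosis was triggered by TNF-α (10 ng/ml), SMAC mimetic (6 μM) and zVAD-FMK (10 μM) in serum-free medium during 20 h compound exposure (10 concentrations, threefold steps) of HT-29 cells. IC50 from duplicate dose-responses uses CellTiter-Glo ATP luminescence as viability read-out.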
Background: ATP-based viability assays read luminescence as a measure of living cells.

[1] abbreviates: HT-29, HT-29 necroptosis cell viability assay, class symbols for IC50.
The mark [2] stands for this setting: HT-29, HT-29 necroptosis cell viability, IC50 class symbols.
Setting [3] is: HT-29 cells stimulated with TNF-α (10 ng/ml), SMAC mimetic (6 μM) and zVAD-FMK (10 μM), 20 hours, CellTiter-Glo ATP luminescence, geometric mean IC50 from 10 points.

Counter-ions that a name gives are not always drawn. Like-named read-outs stand apart in the source and are kept apart here. Bounds are passed on as bounds.

For the compound `CC1(N)CN(c2nc(C(F)F)c(Oc3ccc(-n4ncn(Cc5c(F)cccc5F)c4=O)cc3F)s2)C1` [Example 153, 2-(4-((2-(3-amino-3-methylazetidin-1-yl)-4-(difluoromethyl)thiazol-5-yl)oxy)-3-fluorophenyl)-4-(2,6-difluorobenzyl)-2,4-dihydro-3H-1,2,4-triazol-3-one], the IC50 under setting [1] was below 100 nM. Turning to `N#CC12CC(Nc3cc(Oc4ccc(-n5ncn(Cc6c(F)cccc6F)c5=O)cc4F)c(Cl)cn3)(C1)C2` [Example 270, 3-((5-chloro-4-(4-(4-(2,6-difluorobenzyl)-5-oxo-4,5-dihydro-1H-1,2,4-triazol-1-yl)-2-fluorophenoxy)pyridin-2-yl)amino)bicyclo[1.1.1]pentane-1-carbonitrile], under setting [2], the IC50 is below 100 nM. For the compound `N#Cc1cc(S(=O)(=O)c2ccc(-n3ncn(Cc4ccccc4)c3=O)cc2)ccn1` [Example 615, 4-((4-(4-benzyl-5-oxo-4,5-dihydro-1H-1,2,4-triazol-1-yl)phenyl)sulfonyl)picolinonitrile], the IC50 under setting [1] is below 100 nM. In the case of `Cc1nc(C(=O)NCCN2CCOCC2)sc1Oc1ccc(-n2ncn(Cc3ccccc3F)c2=O)cc1F` [Example 25, 5-(2-fluoro-4-(4-(2-fluorobenzyl)-5-oxo-4,5-dihydro-1H-1,2,4-triazol-1-yl)phenoxy)-4-methyl-N-(2-morpholinoethyl)thiazole-2-carboxamide], under setting [3], the IC50 was below 100 nM. `C[C@H]1[C@H](C#N)CN1c1cc(Oc2ccc(-n3ncn(Cc4c(F)cccc4F)c3=O)cc2F)c(Cl)cn1` [Example 233, (2S,3R)-1-(5-chloro-4-(4-(4-(2,6-difluorobenzyl)-5-oxo-4,5-dihydro-1H-1,2,4-triazol-1-yl)-2-fluorophenoxy)pyridin-2-yl)-2-methylazetidine-3-carbonitrile]: the IC50 under setting [2] was below 100 nM. On the same count and under the same terms, as for `Cc1c(Oc2ccc(-n3ncn(Cc4c(F)cccc4F)c3=O)cc2F)ccnc1NC12CC(C#N)(C1)C2` [Example 271, 3-((4-(4-(4-(2,6-difluorobenzyl)-5-oxo-4,5-dihydro-1H-1,2,4-triazol-1-yl)-2-fluorophenoxy)-3-methylpyridin-2-yl)amino)bicyclo[1.1.1]pentane-1-carbonitrile], the figure is below 100 nM. Regarding `Cc1nc(CO)sc1Oc1ccc(-n2ncn(Cc3c(F)cccc3F)c2=O)cc1` [Example 157, 4-(2,6-difluorobenzyl)-2-(4-((2-(hydroxymethyl)-4-methylthiazol-5-yl)oxy)phenyl)-2,4-dihydro-3H-1,2,4-triazol-3-one], the IC50 under setting [1] is below 100 nM. Consider `Nc1cccc(Cl)c1Oc1ccc(-n2ncn(Cc3c(F)cccc3F)c2=O)cc1` [Example 440, 2-(4-(2-amino-6-chlorophenoxy)phenyl)-4-(2,6-difluorobenzyl)-2,4-dihydro-3H-1,2,4-triazol-3-one], for which the IC50 under setting [2] was below 100 nM. In the case of `Cn1cc(C#N)nc1Oc1ccc(-n2ncn(Cc3c(F)cccc3F)c2=O)cc1F` [Example 121, 2-(4-(4-(2,6-difluorobenzyl)-5-oxo-4,5-dihydro-1H-1,2,4-triazol-1-yl)-2-fluorophenoxy)-1-methyl-1H-imidazole-4-carbonitrile], under setting [1], the IC50 was 100 to 1000 nM. On to `Cc1nc(N2CC3(CCO3)C2)sc1Oc1ccc(-n2ncn(Cc3c(F)cccc3F)c2=O)cc1` [Example 457, 4-(2,6-difluorobenzyl)-2-(4-((4-methyl-2-(1-oxa-6-azaspiro[3.3]heptan-6-yl)thiazol-5-yl)oxy)phenyl)-2,4-dihydro-3H-1,2,4-triazol-3-one], for which the IC50 under setting [2] is below 100 nM. On to `CCOC(=O)c1cc(C)n(Cc2ccc(-n3ncn(Cc4c(F)cccc4F)c3=O)cc2F)c1` [Example 204, ethyl 1-(4-(4-(2,6-difluorobenzyl)-5-oxo-4,5-dihydro-1H-1,2,4-triazol-1-yl)-2-fluorobenzyl)-5-methyl-1H-pyrrole-3-carboxylate], for which, under setting [1], the IC50 was below 100 nM. For the compound `O=c1n(Cc2c(F)cccc2F)cnn1-c1ccc(Oc2ccnc(N3CC4(CCN4)C3)c2)cc1` [Example 315, 2-(4-((2-(1,6-diazaspiro[3.3]heptan-6-yl)pyridin-4-yl)oxy)phenyl)-4-(2,6-difluorobenzyl)-2,4-dihydro-3H-1,2,4-triazol-3-one], the IC50 under setting [2] is below 100 nM. Still for that read-out and setting: the result for `N#Cc1cnc(Cl)cc1Oc1ccc(-n2ncn(Cc3c(F)cccc3F)c2=O)cc1F` [Example 395, 6-chloro-4-(4-(4-(2,6-difluorobenzyl)-5-oxo-4,5-dihydro-1H-1,2,4-triazol-1-yl)-2-fluorophenoxy)nicotinonitrile] reads 1000 to 10000 nM. Regarding `NC(=O)c1cnc(Oc2ccc(-n3ncn(Cc4c(F)cccc4F)c3=O)cc2)s1` [Example 82, 2-(4-(4-(2,6-difluorobenzyl)-5-oxo-4,5-dihydro-1H-1,2,4-triazol-1-yl)phenoxy)thiazole-5-carboxamide], the IC50 under setting [3] fell in the range of 100 to 1000 nM. For the compound `CNC(=O)c1nc(C)c(Oc2ccc(-n3ncn(Cc4cnccc4Cl)c3=O)cc2F)s1` [Example 599, 5-(4-(4-((4-chloropyridin-3-yl)methyl)-5-oxo-4,5-dihydro-1H-1,2,4-triazol-1-yl)-2-fluorophenoxy)-N,4-dimethylthiazole-2-carboxamide], under setting [1], the IC50 was below 100 nM. Consider `Cc1ncsc1Cc1ccc(-n2ncn(Cc3c(F)cccc3F)c2=O)cc1F` [Example 59, 4-(2,6-difluorobenzyl)-2-(3-fluoro-4-((4-methylthiazol-5-yl)methyl)phenyl)-2,4-dihydro-3H-1,2,4-triazol-3-one], for which the IC50 under setting [3] was below 100 nM. The same measure, in the same setting: as for `Cc1nc(N2C[C@H](N)[C@@H]2C)sc1Oc1ccc(-n2ncn(Cc3c(F)cccc3F)c2=O)cc1` [Example 73, 2-(4-((2-((2S,3S)-3-amino-2-methylazetidin-1-yl)-4-methylthiazol-5-yl)oxy)phenyl)-4-(2,6-difluorobenzyl)-2,4-dihydro-3H-1,2,4-triazol-3-one], the figure is below 100 nM.

On to `Cc1nc(C(=O)N2C[C@@H](C)O[C@@H](C)C2)sc1Oc1ccc(-n2nc3n(c2=O)[C@H](c2ccccc2)CC3)cc1F` [Example 20, (S)-2-(4-((2-((2S,6R)-2,6-dimethylmorpholine-4-carbonyl)-4-methylthiazol-5-yl)oxy)-3-fluorophenyl)-5-phenyl-2,5,6,7-tetrahydro-3H-pyrrolo[2,1-c][1,2,4]triazol-3-one], for which the IC50 under setting [3] was below 100 nM. The same measure, in the same setting: the result for `Cc1nc(C2CC(C)(O)C2)sc1Oc1ccc(-n2ncn(Cc3c(F)cccc3F)c2=O)cc1F` (centres unmarked) [Example 119, 4-(2,6-difluorobenzyl)-2-(3-fluoro-4-((2-(3-hydroxy-3-methylcyclobutyl)-4-methylthiazol-5-yl)oxy)phenyl)-2,4-dihydro-3H-1,2,4-triazol-3-one] reads below 100 nM. Still for that read-out and setting: the result for `NC(=O)c1coc(Oc2ccc(-n3nc4n(c3=O)[C@H](c3ccccc3)CC4)cc2F)n1` (single isomer, unassigned) [Example 688] reads 100 to 1000 nM.

On to `Cc1c(C(N)=O)noc1Oc1ccc(-n2ncn(Cc3c(F)cccc3F)c2=O)cc1F` [Example 476, 5-(4-(4-(2,6-difluorobenzyl)-5-oxo-4,5-dihydro-1H-1,2,4-triazol-1-yl)-2-fluorophenoxy)-4-methylisoxazole-3-carboxamide], for which the IC50 under setting [2] was below 100 nM.

With `Cc1nc(C(N)=O)n(C)c1Oc1ccc(-n2nc3n(c2=O)[C@H](c2ccccc2)CC3)cc1F` (single isomer, unassigned) [Example 693], the IC50 under setting [3] is below 100 nM.

Regarding `O=c1n(Cc2c(F)cccc2F)cnn1-c1ccc(Oc2ccnc(NC34CC(C3)C4)c2)cc1` [Example 306, 2-[4-[[2-(1-bicyclo[1.1.1]pentanylamino)-4-pyridyl]oxy]phenyl]-4-[(2,6-difluorophenyl)methyl]-1,2,4-triazol-3-one], the IC50 under setting [2] is 100 to 1000 nM.

Take `Cc1nc(N2CC(N)(CF)C2)sc1Cc1ccc(-n2ncn(Cc3c(F)cccc3F)c2=O)cc1F` [Example 62, 2-(4-((2-(3-amino-3-(fluoromethyl)azetidin-1-yl)-4-methylthiazol-5-yl)methyl)-3-fluorophenyl)-4-(2,6-difluorobenzyl)-2,4-dihydro-3H-1,2,4-triazol-3-one trifluoroacetate]: under setting [3], the IC50 was below 100 nM.

For the compound `O=c1n(Cc2c(F)cccc2F)cnn1-c1ccc(Oc2ccnc(NC3CC(F)(F)C3)c2)cc1` [Example 328, 4-(2,6-difluorobenzyl)-2-(4-((2-((3,3-difluorocyclobutyl)amino)pyridin-4-yl)oxy)phenyl)-2,4-dihydro-3H-1,2,4-triazol-3-one], the IC50 under setting [2] fell in the range of 100 to 1000 nM. Still for that read-out and setting: as for `C[C@H](Nc1cc(Oc2ccc(-n3ncn(Cc4c(F)cccc4F)c3=O)cc2)ccn1)C1CCC1` [Example 349, (S)-2-(4-((2-((1-cyclobutylethyl)amino)pyridin-4-yl)oxy)phenyl)-4-(2,6-difluorobenzyl)-2,4-dihydro-3H-1,2,4-triazol-3-one], the figure is 100 to 1000 nM.

Take `N#Cc1ccc(=O)n(Cc2ccc(-n3ncn(Cc4c(F)cccc4F)c3=O)cc2)c1` [Example 195, 1-(4-(4-(2,6-difluorobenzyl)-5-oxo-4,5-dihydro-1H-1,2,4-triazol-1-yl)benzyl)-6-oxo-1,6-dihydropyridine-3-carbonitrile]: the IC50 under setting [1] lay in the range of 100 to 1000 nM. On the same count and under the same terms, as for `O=c1n(Cc2c(F)cccc2F)cnn1-c1ccc(Oc2cc(C3CCOCC3)ncc2F)c(F)c1` [Example 553, 4-(2,6-difluorobenzyl)-2-(3-fluoro-4-((5-fluoro-2-(tetrahydro-2H-pyran-4-yl)pyridin-4-yl)oxy)phenyl)-2,4-dihydro-3H-1,2,4-triazol-3-one], the figure is 100 to 1000 nM.

For `Cc1nn(-c2ccc(S(=O)(=O)N3CCN(C4CCCOC4)CC3)cc2)c(=O)n1Cc1ccccc1` (centres unmarked) [Example 626, 4-benzyl-5-methyl-2-(4-((4-(tetrahydro-2H-pyran-3-yl)piperazin-1-yl)sulfonyl)phenyl)-2,4-dihydro-3H-1,2,4-triazol-3-one], the IC50 under setting [1] was 1000 to 10000 nM.
